Reference: patent US20230266302A1, “SYNTHESIS AND USE OF N-BENZYL SULFONAMIDES” (THE UNIVERSITY OF TULSA, priority 2020, published 2023)

Tests used:
Assay in all cases: ATP level assay (CellTiter-Glo), percent of control
Assay type in all cases: cell-based
[1] = tested on: BxPC3 (pancreatic cancer); settings: two hour incubation; for activity at 100 µM: Homo sapiens, BXPC-3, 2 h, compound alone, control DMSO, read-out: POC (percent of control) BxPC3
H293 (kidney cancer) = settings: two hour incubation; for activity at 100 µM: 2 h, compound alone, control DMSO, read-out: POC (percent of control) H293
HDF (normal cells) = settings: two hour incubation; for activity at 100 µM: 2 h, compound alone, control DMSO, read-out: POC (percent of control) HDF
HeLa (cervical cancer) = settings: two hour incubation; for activity at 100 µM: Homo sapiens, HeLa, 2 h, compound alone, control DMSO, read-out: POC (percent of control) HeLa
[2] = tested on: MCF10A (non-cancerous breast); settings: two hour incubation; for activity at 100 µM: Homo sapiens, MCF-10A, 2 h, compound alone, control DMSO, read-out: POC (percent of control) MCF10A
MCF7 (breast cancer) = settings: two hour incubation; for activity at 100 µM: Homo sapiens, MCF7, 2 h, compound alone, control DMSO, read-out: POC (percent of control) MCF7
MDA-MB (breast cancer) = settings: two hour incubation; for activity at 100 µM: 2 h, compound alone, control DMSO, read-out: POC (percent of control) MDA-MB
NCI-H196 (lung cancer) = settings: two hour incubation; for activity at 100 µM: NCI-H196, 2 h, compound alone, control DMSO, read-out: POC (percent of control) NCI-H196
PC3 (prostate cancer) = settings: two hour incubation; for activity at 100 µM: 2 h, compound alone, control DMSO, read-out: POC (percent of control) PC3
SkBr3 (breast cancer) = settings: two hour incubation; for activity at 100 µM: Homo sapiens, SK-BR-3, 2 h, compound alone, control DMSO, read-out: POC (percent of control) SkBr3
T47D (breast cancer) = settings: two hour incubation; for activity at 100 µM: Homo sapiens, T47D, 2 h, compound alone, control DMSO, read-out: POC (percent of control) T47D
[3] = compound 100 uM + 2DG (about 10-20 mM)
[4] = compound 100 uM + rotenone (approximately 1.25 μM)

Row | SMILES | activity at 100 µM [1] | POC (percent of control) BxPC3 [1, 4] | activity at 100 µM (H293 (kidney cancer)) | POC (percent of control) H293 (H293 (kidney cancer); [3]) | POC (percent of control) H293 (H293 (kidney cancer); [4]) | activity at 100 µM (HDF (normal cells)) | POC (percent of control) HDF (HDF (normal cells); [3]) | POC (percent of control) HDF (HDF (normal cells); [4]) | activity at 100 µM (HeLa (cervical cancer)) | POC (percent of control) HeLa (HeLa (cervical cancer); [3]) | POC (percent of control) HeLa (HeLa (cervical cancer); [4]) | activity at 100 µM [2] | POC (percent of control) MCF10A [2, 3] | POC (percent of control) MCF10A [2, 4] | activity at 100 µM (MCF7 (breast cancer)) | POC (percent of control) MCF7 (MCF7 (breast cancer); [3]) | POC (percent of control) MCF7 (MCF7 (breast cancer); [4]) | activity at 100 µM (MDA-MB (breast cancer)) | POC (percent of control) MDA-MB (MDA-MB (breast cancer); [3]) | POC (percent of control) MDA-MB (MDA-MB (breast cancer); [4]) | also measured
1 | Cc1ccc(S(=O)(=O)NCc2ccc3c(cnn3C)c2)cc1 [Compound 9, 4-methyl-N-[(1-methyl-1H-indazol-5-yl)methyl]benzenesulfonamide] | 114% | 118.5% of control | 83.3% | 76.6% of control | 88.5% of control | 86.4% | 88.5% of control | 107.6% of control | 97.3% | 80.5% of control | 89.8% of control | 89.6% | 88.3% of control | 123.7% of control | 117% | 75.8% of control | 95.1% of control | 95.6% | 91.7% of control | 114% of control | POC (percent of control) BxPC3 [1, 3]: 57.6% of control; activity at 100 µM (NCI-H196 (lung cancer)): 93.1%; POC (percent of control) NCI-H196 (NCI-H196 (lung cancer); [3]): 86.1% of control; POC (percent of control) NCI-H196 (NCI-H196 (lung cancer); [4]): 117.7% of control; activity at 100 µM (PC3 (prostate cancer)): 90.4%; POC (percent of control) PC3 (PC3 (prostate cancer); [3]): 89.3% of control; POC (percent of control) PC3 (PC3 (prostate cancer); [4]): 101.7% of control; activity at 100 µM (SkBr3 (breast cancer)): 74.1%; POC (percent of control) SkBr3 (SkBr3 (breast cancer); [3]): 89.9% of control; POC (percent of control) SkBr3 (SkBr3 (breast cancer); [4]): 115.5% of control; activity at 100 µM (T47D (breast cancer)): 50.3%; POC (percent of control) T47D (T47D (breast cancer); [3]): 58.9% of control; POC (percent of control) T47D (T47D (breast cancer); [4]): 103.5% of control
2 | COc1ncccc1CNS(=O)(=O)c1ccccc1 [Compound 13, N-[(2-methoxypyridin-3-yl)methyl]benzenesulfonamide] | 91.2% | 55.3% of control | 101% | 69.4% of control | 81.1% of control | 96.5% | 104.2% of control | 98.3% of control | 94.6% | 90.7% of control | 94.1% of control | 94.8% | 96.1% of control | 84% of control | 127% | 89.7% of control | 116.5% of control | 101% | 81.9% of control | 103.8% of control | POC (percent of control) BxPC3 [1, 3]: 74.1% of control; activity at 100 µM (NCI-H196 (lung cancer)): 87.6%; POC (percent of control) NCI-H196 (NCI-H196 (lung cancer); [3]): 127.4% of control; POC (percent of control) NCI-H196 (NCI-H196 (lung cancer); [4]): 99.7% of control; activity at 100 µM (PC3 (prostate cancer)): 82.2%; POC (percent of control) PC3 (PC3 (prostate cancer); [3]): 97.3% of control; POC (percent of control) PC3 (PC3 (prostate cancer); [4]): 101.2% of control; activity at 100 µM (SkBr3 (breast cancer)): 101%; POC (percent of control) SkBr3 (SkBr3 (breast cancer); [3]): 87.2% of control; POC (percent of control) SkBr3 (SkBr3 (breast cancer); [4]): 96.5% of control; activity at 100 µM (T47D (breast cancer)): 84.3%; POC (percent of control) T47D (T47D (breast cancer); [3]): 88.8% of control; POC (percent of control) T47D (T47D (breast cancer); [4]): 90% of control
3 | O=S(=O)(NCc1cncnc1)c1ccc(Cl)cc1 [Compound 14, 4-chloro-N-(pyrimidin-5-ylmethyl)benzenesulfonamide] | 93.8% | 60.9% of control | 84.9% | 82.1% of control | 82.4% of control | 96.1% | 96.3% of control | 90.9% of control | 98.3% | 106.4% of control | 102.1% of control | 103% | 119.1% of control | 94.3% of control | 126% | 109.8% of control | 94.4% of control | 105% | 86% of control | 87.5% of control | POC (percent of control) BxPC3 [1, 3]: 95.4% of control; activity at 100 µM (NCI-H196 (lung cancer)): 86.9%; POC (percent of control) NCI-H196 (NCI-H196 (lung cancer); [3]): 107.3% of control; POC (percent of control) NCI-H196 (NCI-H196 (lung cancer); [4]): 109% of control; activity at 100 µM (PC3 (prostate cancer)): 111%; POC (percent of control) PC3 (PC3 (prostate cancer); [3]): 101.7% of control; POC (percent of control) PC3 (PC3 (prostate cancer); [4]): 101.7% of control; activity at 100 µM (SkBr3 (breast cancer)): 107%; POC (percent of control) SkBr3 (SkBr3 (breast cancer); [3]): 96.9% of control; POC (percent of control) SkBr3 (SkBr3 (breast cancer); [4]): 98.3% of control; activity at 100 µM (T47D (breast cancer)): 86.7%; POC (percent of control) T47D (T47D (breast cancer); [3]): 106.4% of control; POC (percent of control) T47D (T47D (breast cancer); [4]): 114.8% of control
4 | O=S(=O)(NCc1c[nH]c2ccccc12)c1ccc(C(F)(F)F)cc1 [Compound 24, N-(1H-indol-3-ylmethyl)-4-(trifluoromethyl)benzenesulfonamide] | 59% | 38.6% of control | 62.6% | 42.1% of control | 47.6% of control | 57.2% | 65.6% of control | 95.7% of control | 78.9% | 80.4% of control | 96.1% of control | 85.1% | 56.8% of control | 59.1% of control | 82.9% | 55.7% of control | 66.5% of control | 96.4% | 41.5% of control | 49.7% of control | POC (percent of control) BxPC3 [1, 3]: 43.1% of control; activity at 100 µM (NCI-H196 (lung cancer)): 172%; POC (percent of control) NCI-H196 (NCI-H196 (lung cancer); [3]): 54.6% of control; POC (percent of control) NCI-H196 (NCI-H196 (lung cancer); [4]): 73.3% of control; activity at 100 µM (PC3 (prostate cancer)): 54.6%; POC (percent of control) PC3 (PC3 (prostate cancer); [3]): 52.5% of control; POC (percent of control) PC3 (PC3 (prostate cancer); [4]): 47.5% of control; activity at 100 µM (SkBr3 (breast cancer)): 93.4%; POC (percent of control) SkBr3 (SkBr3 (breast cancer); [3]): 66.5% of control; POC (percent of control) SkBr3 (SkBr3 (breast cancer); [4]): 67.2% of control; activity at 100 µM (T47D (breast cancer)): 70.6%; POC (percent of control) T47D (T47D (breast cancer); [3]): 49.7% of control; POC (percent of control) T47D (T47D (breast cancer); [4]): 65.5% of control
5 | CC(=O)n1cc(CNS(=O)(=O)c2ccc(Cl)cc2)c2ccccc21 [Compound 4, N-[(1-acetyl-1H-indole-3-yl)methyl]-4-chlorobenzenesulfonamide] | 88.4% | 71.1% of control | 88.6% | 60% of control | 65.8% of control | 88.1% | 66.8% of control | 88.6% of control | 90.6% | 67.4% of control | 84.3% of control | 59.7% | 84.8% of control | 89.8% of control | 108% | 82.2% of control | 79.2% of control | 94.7% | 63.6% of control | 71.9% of control | activity at 100 µM (NCI-H196 (lung cancer)): 72.5%; POC (percent of control) NCI-H196 (NCI-H196 (lung cancer); [3]): 49.6% of control; POC (percent of control) NCI-H196 (NCI-H196 (lung cancer); [4]): 61.5% of control; activity at 100 µM (PC3 (prostate cancer)): 93.7%; POC (percent of control) PC3 (PC3 (prostate cancer); [3]): 61.9% of control; POC (percent of control) PC3 (PC3 (prostate cancer); [4]): 61.3% of control; activity at 100 µM (SkBr3 (breast cancer)): 79.1%; POC (percent of control) SkBr3 (SkBr3 (breast cancer); [3]): 87.5% of control; POC (percent of control) SkBr3 (SkBr3 (breast cancer); [4]): 96.8% of control; activity at 100 µM (T47D (breast cancer)): 48.9%; POC (percent of control) T47D (T47D (breast cancer); [3]): 36.3% of control; POC (percent of control) T47D (T47D (breast cancer); [4]): 45.8% of control
